In patent US8703776B2 (Cymabay Therapeutics, Inc., priority 2011, dated 2014):

Target: T1, human GPR131 (Homo sapiens, UniProt Q8TDU6)
T1 construct: expressed in transfected cells
T1 sequence (Q8TDU6 1-330): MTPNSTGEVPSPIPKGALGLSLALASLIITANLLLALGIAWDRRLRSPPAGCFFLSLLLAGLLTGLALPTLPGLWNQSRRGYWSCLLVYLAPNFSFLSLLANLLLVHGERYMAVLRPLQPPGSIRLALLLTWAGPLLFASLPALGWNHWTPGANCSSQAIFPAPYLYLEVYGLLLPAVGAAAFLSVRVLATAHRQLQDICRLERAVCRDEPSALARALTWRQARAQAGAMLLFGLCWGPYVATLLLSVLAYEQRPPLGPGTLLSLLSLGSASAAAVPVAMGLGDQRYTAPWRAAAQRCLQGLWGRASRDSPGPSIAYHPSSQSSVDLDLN
Experiment: Stimulation of cAMP in stable cell line expressing human GPR131 (FRET cAMP kit)
Assay type: cell-based
Conditions: 0.5 h; 1.1 μM compound, relative to maximal stimulatory activity of lithocholic acid at 3.3 μM; 30 minutes at 37° C.; read-out: Percent Activity @ 1.1 μM (of 3.3 uM LCA) (%)
Experimental: This assay was developed using a stable cell line expressing human GPR131.
To measure cAMP activity in response to GPR131 agonists, GPR131 cells suspended in DMEM/F12 medium with 1 mM IBMX were seeded in 384 well plates at 5000 cells per well. After incubating with test compounds at 37° C. for 30 minutes cAMP was measured using a fluorescene resonance energy transfer cAMP kit from Cis Bio (Bedford, Mass.) according to the manufacturer's instructions. Briefly, cells were lysed, and cAMP levels determined by competitive immunoassay using D2 labeled cAMP, and europium cryptate tagged anti cAMP antibody. Decreases in the FRET signal (fluorescence ratio (665 nm/620 […]) correspond to increases in intracellular cAMP levels.
Activities of test compounds in Table 1 below are expressed as % activity at 1.1 μM compound compared to the maximal stimulatory activity of lithocholic acid (LCA) (determined at 3.3 μM LCA)

| activation at 1.1 µM | SMILES |
| --- | --- |
| 99% | CN(Cc1ccncc1)C(=O)c1cnc(SCc2c(F)cccc2Cl)n1-c1cccc(F)c1 [Compound 564, 2-((2-Chloro-6-fluorobenzyl)thio)-1-(3-fluorophenyl)-N-methyl-N-(pyridin-4-ylmethyl)-1H-imidazole-5-carboxamide] |
| 99% | CN(Cc1ccncc1)C(=O)c1cnc(SCc2c(F)cccc2Cl)n1C1CCCCC1 [Compound 565, 2-((2-Chloro-6-fluorobenzyl)thio)-1-cyclohexyl-N-methyl-N-(pyridin-4-ylmethyl)-1H-imidazole-5-carboxamide] |
| 96% | Cc1nn(C)cc1CN(C)C(=O)c1cnc(CSc2c(Cl)cccc2Cl)n1-c1ccc(F)cc1 [Compound 567, 2-(((2,6-Dichlorophenyl)thio)methyl)-N-((1,3-dimethyl-1H-pyrazol-4-yl)methyl)-1-(4-fluorophenyl)-N-methyl-1H-imidazole-5-carboxamide] |
| 83% | Cc1nn(C)cc1CN(C)C(=O)c1cnc(COc2c(F)ccc(F)c2F)n1-c1ccc(F)cc1 [Compound 568, N-((1,3-Dimethyl-1H-pyrazol-4-yl)methyl)-1-(4-fluorophenyl)-N-methyl-2-((2,3,6-trifluorophenoxy)methyl)-1H-imidazole-5-carboxamide] |
| 98% | Cc1nn(C)cc1CN(C)C(=O)c1cnc(CSc2c(F)c(F)cc(F)c2F)n1-c1ccc(F)cc1 [Compound 569, N-((1,3-Dimethyl-1H-pyrazol-4-yl)methyl)-1-(4-fluorophenyl)-N-methyl-2-(((2,3,5,6-tetrafluorophenyl)thio)methyl)-1H-imidazole-5-carboxamide] |
| 88% | Cc1nn(C)cc1CN(C)C(=O)c1cnc(CSCc2c(F)ccc(F)c2F)n1-c1ccc(F)cc1 [Compound 572, N-((1,3-Dimethyl-1H-pyrazol-4-yl)methyl)-1-(4-fluorophenyl)-N-methyl-2-(((2,3,6-trifluorobenzyl)thio)methyl)-1H-imidazole-5-carboxamide] |
| 99% | CN(Cc1ccnc(Cl)c1)C(=O)c1cnc(SCc2c(F)ccc(F)c2F)n1-c1ccc(F)cc1 [Compound 578, N-((2-Chloropyridin-4-yl)methyl)-1-(4-fluorophenyl)-N-methyl-2-((2,3,6-trifluorobenzyl)thio)-1H-imidazole-5-carboxamide] |
| 85% | Cc1nn(C)cc1CN(C)C(=O)c1cnc(SCc2ccncc2)n1-c1ccc(F)cc1 [Compound 579, N-((1,3-Dimethyl-1H-pyrazol-4-yl)methyl)-1-(4-fluorophenyl)-N-methyl-2-((pyridine-4-ylmethyl)thio)-1H-imidazole-5-carboxamide] |
| 96% | Cc1cc(CN(C)C(=O)c2cnc(SCCc3ccc(F)c(Cl)c3)n2-c2ccc(F)cc2)ccn1 [Compound 583] |
| 97% | Cc1cc(CN(C)C(=O)c2c(C)nc(SCc3c(F)ccc(F)c3F)n2-c2ccc(F)cc2)ccn1 [Compound 585, 1-(4-Fluorophenyl)-N-4-dimethyl-N-((2-methylpyridin-4-yl)methyl)-2-((2,3,6-trifluorobenzyl)thio)-1H-imidazole-5-carboxamide] |
| 86% | Cc1cc(CN(C)C(=O)c2cnc(S(=O)(=O)CCc3ccc(F)c(Cl)c3)n2-c2ccc(F)cc2)ccn1 [Compound 586, 2-((3-Chloro-4-fluorophenethyl)sulfonyl)-1-(4-fluorophenyl)-N-methyl-N-((2-methylpyridin-4-yl)methyl)-1H-imidazole-5-carboxamide] |
| 86% | CN(Cc1ccnc(C(F)(F)F)c1)C(=O)c1cnc(SCc2c(F)ccc(F)c2F)n1-c1ccc(F)cc1 [Compound 587] |
| 87% | Cc1cc(CN(C)C(=O)c2cnc(I)n2-c2ccc(F)cc2)ccn1 [Compound 589, 1-(4-Fluorophenyl)-2-iodo-N-methyl-N-((2-methylpyridin-4-yl)methyl)-1H-imidazole-5-carboxamide] |
| 86% | Cc1nn(C)cc1CN(C)C(=O)c1cnc(Br)n1-c1ccc(F)cc1 [Compound 590, 2-Bromo-N-((1,3-dimethyl-1H-pyrazol-4-yl)methyl)-1-(4-fluorophenyl)-N-methyl-1H-imidazole-5-carboxamine] |
| 94% | COc1ccc(Cl)c(CSc2ncc(C(=O)N3CCCC3c3ccncc3)n2-c2ccc(F)cc2)c1F (stereo not drawn) [Compound 591, (2-((6-Chloro-2-fluoro-3-methoxybenzyl)thio)-1-(4-fluorophenyl)-1H-imidazol-5-yl)(2-(pyridin-4-yl)pyrrolidin-1-yl)methanone] |
| 99% | Cc1nn(C)cc1CN(C)C(=O)c1cnc(SCc2ccccc2)n1-c1ccc(F)cc1 [Compound 593, 2-(Benzylthio)-N-((1,3-dimethyl-1H-pyrazol-4-yl)methyl)-1-(4-fluorophenyl)-N-methyl-1H-imidazole-5-carboxamide] |
| 98% | COc1ccc(Cl)c(CSc2nnc(C(=O)N(C)Cc3ccncc3)n2-c2ccc(F)cc2)c1F [Compound 594, 5-((6-Chloro-2-fluoro-3-methoxybenzyl)thio)-4-(4-fluorophenyl)-N-methyl-N-(pyridin-4-ylmethyl)-4H-1,2,4-triazole-3-carboxamide] |
| 98% | Cc1ccc(Cl)c(CSc2nnc(C(=O)N(C)Cc3ccncc3)n2-c2ccc(F)cc2)c1F [Compound 595, 5-((6-Chloro-2-fluoro-3-methylbenzyl)thio)-4-(4-fluorophenyl)-N-methyl-N-(pyridin-4-ylmethyl)-4H-1,2,4-triazole-3-carboxamide] |
| 100% | COc1ccc(Cl)c(CSc2ncc(C(=O)N(C)Cc3cn(C)nc3C)n2-c2ccc(F)cc2)c1F [Compound 596, 2-((6-Chloro-2-fluoro-3-methoxybenzyl)thio)-N-((1,3-dimethyl-1H-pyrazol-4-yl)methyl)-1-(4-fluorophenyl)-N-methyl-1H-imidazole-5-carboxamide] |
| 100% | Cc1ccc(Cl)c(CSc2ncc(C(=O)N(C)Cc3cn(C)nc3C)n2-c2ccc(F)cc2)c1F [Compound 597, 2-((6-Chloro-2-fluoro-3-methylbenzyl)thio)-N-((1,3-dimethyl-1H-pyrazol-4-yl)methyl)-1-(4-fluorophenyl)-N-methyl-1H-imidazole-5-carboxamide] |
| 82% | CN(Cc1cccnc1)C(=O)c1cnc(SCc2c(F)ccc(F)c2F)n1-c1ccc(F)cc1 [Compound 603, 1-(4-Fluorophenyl)-N-methyl-N-(pyridin-3-ylmethyl)-2-((2,3,6-trifluorobenzyl)thio)-1H-imidazole-5-carboxamide] |
| 98% | Fc1ccc(-n2c(COCc3ccncc3)nnc2SCc2c(F)ccc(F)c2F)cc1 [Compound 606] |
| 93% | CN(Cc1ccncc1)C(=O)c1cnc(SCc2c(F)cccc2C(F)(F)F)n1-c1ccc(F)cc1 [Compound 607, 2-((2-Fluoro-6-(trifluoromethyl)benzyl)thio)-1-(4-fluorophenyl)-N-methyl-N-(pyridin-4-ylmethyl)-1H-imidazole-5-carboxamide] |
| 86% | CN(Cc1ccncc1)C(=O)c1cnc(SCc2ccc(Cl)cc2C(F)(F)F)n1-c1ccc(F)cc1 [Compound 609, 2-((4-Chloro-2-(trifluoromethyl)benzyl)thio)-1-(4-fluorophenyl)-N-methyl-N-(pyridin-4-ylmethyl)-1H-imidazole-5-carboxamide] |
